Source: US20150004134A1, “TREATMENT OF CANCER WITH HETEROCYCLIC INHIBITORS OF GLUTAMINASE” (Calithera Biosciences, Inc., priority 2012, published 2015)
Where two headings read alike, the source gives them in different places.

How the values were obtained:
[1] = system: P493-6 (myc "on") cells; experiment: Cell Proliferation Assay; type: cell-based; details: P493-6, 72 h, read-out: Cell prolif P493 72 h IC50, P493-6 cells, 72 h
Method in brief: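 Read-out: either Cell Titer Glo or Guava Viacount flow analysis after 72 h compound treatment of myc-on P493-6 cells (10,000/well, RPMI with 10% FBS) at 37 °C. DMSO held at 0.5% final.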

[2] = target: T1, recombinant form of Glutaminase 1 (GAC) (Homo sapiens, UniProt O94925); experiment: Recombinant Enzyme Assay - Time Dependence (60 min preincubation); type: biochemical
T1 sequence (O94925 137-598 isoform O94925-3 limits assumed): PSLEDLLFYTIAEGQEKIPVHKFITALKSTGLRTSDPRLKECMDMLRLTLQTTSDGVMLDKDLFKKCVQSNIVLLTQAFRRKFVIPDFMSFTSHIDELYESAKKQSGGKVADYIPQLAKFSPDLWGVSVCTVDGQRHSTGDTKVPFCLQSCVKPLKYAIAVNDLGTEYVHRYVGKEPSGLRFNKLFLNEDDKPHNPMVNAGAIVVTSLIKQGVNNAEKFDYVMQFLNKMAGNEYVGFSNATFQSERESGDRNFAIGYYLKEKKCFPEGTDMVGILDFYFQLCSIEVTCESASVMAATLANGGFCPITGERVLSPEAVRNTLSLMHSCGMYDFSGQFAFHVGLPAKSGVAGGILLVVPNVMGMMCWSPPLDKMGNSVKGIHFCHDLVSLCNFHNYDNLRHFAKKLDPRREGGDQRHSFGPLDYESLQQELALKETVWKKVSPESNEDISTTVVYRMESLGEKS
Protocol: The enzyme/compound mix was sealed with sealing foil (USA Scientific) and allowed to incubate, with mild agitation, for 60 minutes at 20° C. Enzymatic reaction was started with the addition of 50 μL of substrate solution (50 mM Tris-HCl pH 8.0, 0.2 mM EDTA, 150 mM K2HPO4, 0.1 mg/ml BSA, 1 mM DTT, 20 mM L-glutamine, 2 mM NAD^+, and 10 ppm antifoam) and read in a Molecular Devices M5 plate reader at 20° C. The plate reader was configured to read absorbance (=340 nm) in kinetic mode for 15 minutes. Data was recorded as milli-absorbance units per minute and slopes were compared to a control compound and a DMSO-only control on the same plate. Compounds with slopes less than the DMSO control were considered inhibitors and plate variability was assessed using the control compound.

[3] = read-out: GAC Delta N2 IC50 60 min preinc

Question: CC(C)(N)c1cccc(CC(=O)Nc2nnc(CCCCc3ccc(NC(=O)Cc4ccccc4)nn3)s2)c1 [Compound 632] was tested. Which IC50 [1] did it give?
Answer: Its IC50 is 200 nM.

Question: And the IC50 [2]?
Answer: The IC50 was 10 nM.

Question: O=C(Cc1ccccc1)Nc1ccc(CCCCc2nnc(NC(=O)Cc3cccc(CCNC(=O)c4ccccc4)c3)s2)nn1 [Compound 455] was tested. Which IC50 [1] did it give?
Answer: Its IC50 is 12 nM.

Question: And the IC50 [2, 3]?
Answer: The IC50 was 3 nM.

Question: For O=C(CN1CCOCC1)Nc1cccc(CC(=O)Nc2nnc(CCCCc3ccc(NC(=O)Cc4ccccc4)nn3)s2)c1 [Compound 440], which IC50 [1] is on record?
Answer: The IC50 was 31 nM.

Question: And the IC50 [2, 3]?
Answer: Its IC50 is 8 nM.

Question: What does the source list for CCNC(=O)OC(C)c1cccc(CC(=O)Nc2nnc(CCCCc3ccc(NC(=O)Cc4ccccc4)nn3)s2)c1 (stereo not drawn) [Compound 592]?
Answer: IC50 [1]: 11 nM; IC50 [2, 3]: 4 nM

Question: With CC(C)(O)COc1cccc(CC(=O)Nc2nnc(CCCCc3ccc(NC(=O)Cc4ccccc4)nn3)s2)c1 [Compound 482] as the compound, how does the IC50 [1] read?
Answer: Its IC50 is 38 nM.

Question: What about the IC50 [2, 3] of the same compound?
Answer: The IC50 was 7 nM.

Question: For CC(C)CN(C)C(=O)Cc1cccc(CC(=O)Nc2nnc(CCCCc3ccc(NC(=O)Cc4ccccc4)nn3)s2)c1 [Compound 485], which IC50 [1] is on record?
Answer: Its IC50 is 12 nM.

Question: And the IC50 [2, 3]?
Answer: The IC50 was 4 nM.

Question: How did the IC50 [1] turn out when CCOC(=O)NCc1cccc(CC(=O)Nc2ccc(CCCCc3nnc(NC(=O)C(C)c4ccccc4)s3)nn2)c1 (stereo not drawn) [Compound 555] was run?
Answer: Its IC50 is 10 nM.

Question: What about the IC50 [2, 3] of the same compound?
Answer: Its IC50 is 4 nM.

Question: CC(NC(=O)C(F)(F)F)c1cccc(CC(=O)Nc2ccc(CCCCc3nnc(NC(=O)Cc4ccccc4)s3)nn2)c1 (stereo not drawn) [Compound 622] was tested. Which IC50 [1] did it give?
Answer: Its IC50 is 10 nM.

Question: And the IC50 [2, 3]?
Answer: The IC50 was 4 nM.

Question: What does the source list for O=C(Cc1cccc(Cn2cccn2)c1)Nc1ccc(CCCCc2nnc(NC(=O)Cc3ccccc3)s2)nn1 [Compound 500]?
Answer: IC50 [1]: 29 nM; IC50 [2, 3]: 4 nM

Question: Which IC50 [1] does the source give for COC(=O)NCc1cccc(CC(=O)Nc2ccc(CCCCc3nnc(NC(=O)Cc4cccc(CNC(=O)OC)c4)s3)nn2)c1 [Compound 573] here?
Answer: Its IC50 is 15 nM.

Question: And the IC50 [2, 3]?
Answer: The IC50 was 4 nM.

Question: With O=C(Cc1ccccc1)Nc1ccc(CCCCc2nnc(NC(=O)Cc3ccccc3Cl)s2)nn1 [Compound 522] as the compound, how does the IC50 [1] read?
Answer: Its IC50 is 60 nM.

Question: And the IC50 [2, 3]?
Answer: Its IC50 is 23 nM.

Question: What does the source list for COc1ccccc1CC(=O)Nc1nnc(CCCCc2ccc(NC(=O)Cc3ccccc3F)nn2)s1 [Compound 532]?
Answer: IC50 [1]: 59 nM; IC50 [2, 3]: 6 nM

Question: What does the source list for O=C(Cc1cccs1)Nc1ccc(CCCCc2nnc(NC(=O)Cc3ccccc3)s2)nn1 [Compound 499]?
Answer: IC50 [1]: 190 nM; IC50 [2, 3]: 10 nM

Question: What does the source list for O=C(Cc1cccc(OCC(F)(F)F)c1)Nc1ccc(CCCCc2nnc(NC(=O)Cc3ccccc3)s2)nn1 [Compound 667]?
Answer: IC50 [1]: 110 nM; IC50 [2, 3]: 4 nM

Question: For O=C(Cc1cccc2c1CNC2)Nc1ccc(CCCCc2nnc(NC(=O)Cc3cccc(OC(F)(F)F)c3)s2)nn1 [Compound 649], which IC50 [1] is on record?
Answer: Its IC50 is 34 nM.

Question: And the IC50 [2, 3]?
Answer: The IC50 was 4 nM.

Question: What does the source list for O=C(Cc1ccccc1)Nc1ccc(CCCCc2nnc(NC(=O)Nc3ccccc3)s2)nn1 [Compound 419]?
Answer: IC50 [1]: 64 nM; IC50 [2, 3]: 24 nM

Question: CC(C)(C)OC(=O)N1Cc2cccc(CC(=O)Nc3ccc(CCCCc4nnc(NC(=O)Cc5cccc(OC(F)(F)F)c5)s4)nn3)c2C1 [Compound 612] was tested. Which IC50 [1] did it give?
Answer: Its IC50 is 100 nM.

Question: What about the IC50 [2, 3] of the same compound?
Answer: Its IC50 is 65 nM.

Question: How did the IC50 [1] turn out when CCCCS(=O)(=O)Cc1cccc(CC(=O)Nc2nnc(CCCCc3ccc(NC(=O)Cc4ccccc4)nn3)s2)c1 [Compound 644] was run?
Answer: Its IC50 is 13 nM.

Question: And the IC50 [2]?
Answer: Its IC50 is 3 nM.

Question: What does the source list for Cc1nccn1Cc1cccc(CC(=O)Nc2ccc(CCCCc3nnc(NC(=O)Cc4ccccc4)s3)nn2)c1 [Compound 518]?
Answer: IC50 [1]: 63 nM; IC50 [2]: 4 nM

Question: Which results are given for COc1cccc(CC(=O)Nc2ccc(CCCCc3nnc(NC(=O)Cc4cccc(OC(F)(F)F)c4)s3)nn2)c1 [Compound 617]?
Answer: IC50 [1]: 40 nM; IC50 [2, 3]: 5 nM

Question: Which results are given for CC(C)(C)NC(=O)Cc1cccc(CC(=O)Nc2ccc(CCCCc3nnc(NC(=O)Cc4ccccc4)s3)nn2)c1 [Compound 542]?
Answer: IC50 [1]: 43 nM; IC50 [2, 3]: 4 nM

Question: CN(C)CC(=O)NCc1cccc(CC(=O)Nc2nnc(CCCCc3ccc(NC(=O)Cc4ccccc4)nn3)s2)c1 [Compound 434] was tested. Which IC50 [1] did it give?
Answer: The IC50 was 17 nM.

Question: And the IC50 [2, 3]?
Answer: Its IC50 is 5 nM.

Question: How did the IC50 [1] turn out when CCC(=O)NC(C)c1cccc(CC(=O)Nc2ccc(CCCCc3nnc(NC(=O)Cc4ccccc4)s3)nn2)c1 (stereo not drawn) [Compound 621] was run?
Answer: Its IC50 is 20 nM.

Question: What about the IC50 [2] of the same compound?
Answer: The IC50 was 5 nM.

Question: With COc1ccc(CC(=O)Nc2nnc(CCCCc3ccc(NC(=O)Cc4ccccc4)nn3)s2)cc1C [Compound 550] as the compound, how does the IC50 [1] read?
Answer: The IC50 was 36 nM.

Question: And the IC50 [2, 3]?
Answer: Its IC50 is 5 nM.
